Legend:
MNNGHOS tumor xenograft = experiment: In vivo solid tumor disease model, MNNGHOS tumor xenograft; details: MNNGHOS xenograft in mice, dosed orally at 40 mg/kg in PEG 400/0.1 N HCl in saline (40:60)
Source text: In Vivo Solid Tumor Disease Model
This test measures the capacity of compounds to inhibit solid tumor growth.
Tumor xenografts are established in the flank of female athymic CDl mice (Charles River Inc.), by subcutaneous injection of 1X10^6 cells/mouse. Once established, tumors are then serially passaged s.c. in nude mice hosts. Tumor fragments from these host animals are used in subsequent compound evaluation experiments. For compound evaluation experiments female nude mice weighing approximately 20 g are implanted s.c. by surgical implantation with tumor fragments of 30 mg from donor tumors. When the tumors are approximately 100 mm^3 in size (˜7-10 days following implantation), the animals are randomized and separated into treatment and control groups. Each group contains 6-8 tumor-bearing mice, each of which is ear-tagged and followed individually throughout the experiment.
Mice are weighed and tumor measurements are taken by calipers three times weekly, starting on Day 1. These tumor measurements are converted to tumor volume by the well-known formula […]. The experiment is terminated when the control tumors reach a size of approximately 1500 mm^3. […] In addition to tumor volumes, body weight of animals is monitored twice weekly for up to 3 weeks. […]

DU145 = DU145 scattering inhibition; details: Homo sapiens, DU-145, read-out: Potency in cell-based assays DU145 scattering inhibition

Structure (SMILES): COc1cc2nccc(Oc3ccc(NC(=O)N4CCN(c5ccccc5)C4=O)cc3F)c2cc1OC [Example 2, N-(4-(6,7-Dimethoxyquinolin-4-yloxy)-3-fluorophenyl)-2-oxo-3-phenylimidazolidine-1-carboxamide]
- effect on tumors (MNNGHOS tumor xenograft): full regression of the tumors
- tumor growth inhibition (MNNGHOS tumor xenograft): 112%
- IC50 (DU145): 400 nM

— US20080004273A1, “Inhibitors of protein tyrosine kinase activity” (priority 2006, published 2008)
